Test results taken from paper PMC5147891 (PLoS ONE, 2016).
Marks after values point to notes of the source that are not given here.

What was measured:
hCB1 receptors [1] = target: T1, hCB1 receptors (Homo sapiens, UniProt P21554); test: Antagonism of CP-55,940 inhibition of AC activity in intact CHO-hCB1 cells; assay type: cell-based; conditions: CHO-hCB1 cells; for IMAX of CP-55,940, intracellular [3H]cAMP: CP-55,940 alone or after pre-incubation with AM-281 1 μM, Z-Tam 30 μM, Z-4OHT 10 μM, Z-End 30 μM
T1 sequence (P21554 whole entry): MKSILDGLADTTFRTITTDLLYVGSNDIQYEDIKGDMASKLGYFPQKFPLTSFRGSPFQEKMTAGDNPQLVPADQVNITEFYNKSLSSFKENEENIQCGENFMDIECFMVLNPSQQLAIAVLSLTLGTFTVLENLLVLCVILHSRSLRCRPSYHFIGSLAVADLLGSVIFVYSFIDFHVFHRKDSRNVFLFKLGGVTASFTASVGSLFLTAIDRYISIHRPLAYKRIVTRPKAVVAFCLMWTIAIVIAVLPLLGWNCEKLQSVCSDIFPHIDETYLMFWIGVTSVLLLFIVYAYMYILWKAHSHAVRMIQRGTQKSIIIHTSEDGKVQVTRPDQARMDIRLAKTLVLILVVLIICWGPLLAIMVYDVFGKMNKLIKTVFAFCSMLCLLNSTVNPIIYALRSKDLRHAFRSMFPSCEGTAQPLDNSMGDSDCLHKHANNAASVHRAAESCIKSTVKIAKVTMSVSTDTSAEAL
Description: (§1) After overnight seeding into 24-well plates and pre-incubation of cells with [^3H]adenine for 3–5 hr at 37°C as described above, media was removed and the indicated concentration of the SERM to be tested was added to all wells of the 24-well plate. […] Reactions were terminated and [^3H]cAMP isolated as described above.
(§2) Data presented are expressed as mean ± standard error of the mean (S.E.M.) for a minimum of three experiments, each performed in triplicate. GraphPad Prism version 6.0f (GraphPad Software Inc.) was used for all curve-fitting and statistical analyses. Non-linear regression for one-site competition was used to determine the IC50 for competition receptor binding. IC50 values were subsequently converted to Ki values (a measure of receptor affinity) by the Cheng-Prusoff equation [31]. Non-linear regression was also used to analyze concentration-effect curves to determine the EC50 or IC50 (measures of potency) and Emax or Imax (measures of efficacy) for GTPγS binding and adenylyl cyclase experiments, respectively. All dissociation constants and measurements of potency were converted to pKi, pKB, pEC50, or pIC50 values by taking the negative log of each value so that parametric tests could be used for statistical comparisons. To compare three or more groups, statistical significance of the data was determined by a one-way ANOVA, followed by post hoc comparisons using a Tukey's or Dunnett's test. To compare two groups, the non-paired Student's t-test was used.

[2] = target: T2, human mu-opioid receptors (hMOR) (Homo sapiens, UniProt P35372); test: [35S]GTPγS binding (G-protein activity), CHO-hMOR membranes; assay type: biochemical; conditions: 10 μM
T2 construct: expressed in transfected cells
T2 sequence (P35372 whole entry): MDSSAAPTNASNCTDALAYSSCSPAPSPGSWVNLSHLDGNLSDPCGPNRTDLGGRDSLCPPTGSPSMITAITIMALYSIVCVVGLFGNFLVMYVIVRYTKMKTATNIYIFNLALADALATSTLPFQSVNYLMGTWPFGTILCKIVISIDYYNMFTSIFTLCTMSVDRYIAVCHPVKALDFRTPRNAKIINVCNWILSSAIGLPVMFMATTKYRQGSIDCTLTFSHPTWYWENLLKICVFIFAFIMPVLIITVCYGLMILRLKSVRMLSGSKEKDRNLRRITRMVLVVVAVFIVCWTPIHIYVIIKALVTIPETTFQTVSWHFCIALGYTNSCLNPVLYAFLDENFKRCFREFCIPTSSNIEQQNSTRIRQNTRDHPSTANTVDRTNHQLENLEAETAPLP
Description: CHO-hCB1, CHO-hCB2 and CHO-hMOR cells were homogenized individually with 10 complete strokes utilizing a 7ml Dounce glass homogenizer in an ice-cold buffer containing 50 mM HEPES pH 7.4, 3 mM MgCl2, and 1 mM EDTA as described previously. The homogenized samples were then centrifuged at 40,000 × g for 10 min at 4°C. Supernatants were discarded; the pellets re-suspended in the buffer, homogenized again, and centrifuged similarly twice more. After the final centrifugation step, supernatants were discarded and pellets were re-suspended in ice-cold 50 mM HEPES, pH 7.4 to achieve an approximate protein concentration of 10 mg/ml. […] A small aliquot of each membrane preparation was removed prior to freezing and the protein concentration was determined using BCA Protein Assay (Thermo Fisher Scientific, Waltham, MA).
The GTPγS binding assay to measure G-protein activation was performed as previously described. […] Nonspecific binding was defined by the amount of radioactivity remaining in the presence of 10 μM non-radiolabeled GTPγS. […] Four ml of scintiverse scintillation fluid (Fisher Scientific, Waltham, MA) was added to the filters and the amount of radioactivity was quantified 24 hr later utilizing liquid scintillation spectrophotometry.
Data presented are expressed as mean ± standard error of the mean (S.E.M.) for a minimum of three experiments, each performed in triplicate. […]

hCB2 receptors [3] = target: T3, hCB2 receptors (Homo sapiens, UniProt P34972); test: [35S]GTPγS binding (G-protein activity), CHO-hCB2 membranes; assay type: biochemical; conditions: 10 μM
T3 construct: expressed in transfected cells
T3 sequence (P34972 whole entry): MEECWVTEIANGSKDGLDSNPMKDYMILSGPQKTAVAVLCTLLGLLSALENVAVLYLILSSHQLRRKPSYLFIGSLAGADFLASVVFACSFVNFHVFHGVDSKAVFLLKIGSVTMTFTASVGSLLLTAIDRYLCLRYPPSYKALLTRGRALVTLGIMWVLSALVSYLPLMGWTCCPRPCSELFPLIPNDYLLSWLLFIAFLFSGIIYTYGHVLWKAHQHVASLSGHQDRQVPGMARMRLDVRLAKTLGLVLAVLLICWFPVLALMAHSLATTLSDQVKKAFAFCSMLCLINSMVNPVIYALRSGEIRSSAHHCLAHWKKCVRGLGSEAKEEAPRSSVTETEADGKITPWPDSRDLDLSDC
Description: (§3) CHO-hCB1, CHO-hCB2 and CHO-hMOR cells were homogenized individually with 10 complete strokes utilizing a 7ml Dounce glass homogenizer in an ice-cold buffer containing 50 mM HEPES pH 7.4, 3 mM MgCl2, and 1 mM EDTA as described previously. The homogenized samples were then centrifuged at 40,000 × g for 10 min at 4°C. Supernatants were discarded; the pellets re-suspended in the buffer, homogenized again, and centrifuged similarly twice more. After the final centrifugation step, supernatants were discarded and pellets were re-suspended in ice-cold 50 mM HEPES, pH 7.4 to achieve an approximate protein concentration of 10 mg/ml. Membrane homogenates were divided into aliquots and stored at −80°C for future use. A small aliquot of each membrane preparation was removed prior to freezing and the protein concentration was determined using BCA Protein Assay (Thermo Fisher Scientific, Waltham, MA).
The GTPγS binding assay to measure G-protein activation was performed as previously described. Briefly, in a total volume of 1 ml, 25 μg of CHO-hCB2, 50 μg of CHO-hCB1-Rx or 50 μg of CHO-hMOR membranes homogenates were added to each reaction mixture containing 0.1 nM [^35S]GTPγS, 20 mM HEPES, 10 mM MgCl2, 100 mM NaCl, 10 μM GDP, 0.1% bovine serum albumin and the indicated concentrations of ligand to be examined. After mixing, reaction mixtures were incubated at 30°C for 30 min. […] Nonspecific binding was defined by the amount of radioactivity remaining in the presence of 10 μM non-radiolabeled GTPγS. […] Four ml of scintiverse scintillation fluid (Fisher Scientific, Waltham, MA) was added to the filters and the amount of radioactivity was quantified 24 hr later utilizing liquid scintillation spectrophotometry.
Data presented are expressed as mean ± standard error of the mean (S.E.M.) for a minimum of three experiments, each performed in triplicate. […] To compare three or more groups, statistical significance of the data was determined by a one-way ANOVA, followed by post hoc comparisons using a Tukey's or Dunnett's test. […]

hCB1 receptors [4] = target: T1, hCB1 receptors; test: [35S]GTPγS binding (G-protein activity), CHO-hCB1 membranes; assay type: biochemical; conditions: read-out: IMAX, inhibition of basal [35S]GTPγS binding
Description: as §3
The GTPγS binding assay to measure G-protein activation was performed as previously described. Briefly, in a total volume of 1 ml, 25 μg of CHO-hCB2, 50 μg of CHO-hCB1-Rx or 50 μg of CHO-hMOR membranes homogenates were added to each reaction mixture containing 0.1 nM [^35S]GTPγS, 20 mM HEPES, 10 mM MgCl2, 100 mM NaCl, 10 μM GDP, 0.1% bovine serum albumin and the indicated concentrations of ligand to be examined. After mixing, reaction mixtures were incubated at 30°C for 30 min. […] Nonspecific binding was defined by the amount of radioactivity remaining in the presence of 10 μM non-radiolabeled GTPγS. Reactions were terminated by rapid vacuum filtration through glass fiber filters followed by four washes with ice cold 50 mM HEPES (pH 7.4) containing 0.1% bovine serum albumin. Four ml of scintiverse scintillation fluid (Fisher Scientific, Waltham, MA) was added to the filters and the amount of radioactivity was quantified 24 hr later utilizing liquid scintillation spectrophotometry.
as §2, with “All dissociation constants and measurements of potency were converted to pKi, pKB, pEC50, or pIC50 values by taking the negative log of each value so that parametric tests could be used for statistical comparisons.” left out, “To compare two groups, the non-paired Student's t-test was used.” left out

hCB2 receptors [5] = target: T3, hCB2 receptors; test: Antagonism of CP-55,940 inhibition of AC activity in intact CHO-hCB2 cells; assay type: cell-based
Description: as §1, §2

ERs = conditions: ref [23], [24]; cited from earlier work
hCB2 receptors [6] = target: T3, hCB2 receptors; test: Forskolin-stimulated intracellular [3H]cAMP in intact CHO-hCB2 cells; assay type: cell-based; conditions: forskolin-stimulated cAMP, values only approximate
Description: CHO-hCB1, CHO-hCB2, or CHO-hMOR cells were plated separately in normal culture media into 24-well plates at a density of 6 × 10^6 cells/plate and incubated overnight at 37°C in 5% CO2. As previously described, the following day culture media was removed from each well and replaced with 500 μl pre-incubation mixture containing either HAM’s F-12 K (CHO-hCB1) or DMEM (CHO-hCB2 and CHO-hMOR) with 0.9% NaCl, 500 μM 3-isobutyl-1-methylxathine (IBMX) and 2 μCi/well [^3H]adenine. Cells were incubated for 3–5 hr at 37°C. The pre-incubation mix was removed and indicated concentrations of drugs were added to the individual wells for 15 min at 37°C in a Krebs-Ringer-HEPES solution (10 mM HEPES, 110mM NaCl, 25mM Glucose, 55mM Sucrose, 5mM KCl, 1mM MgCl2, 1.8 mM CaCl2, pH 7.4) containing IBMX, and 10 μM forskolin. Reactions were terminated by adding 50 μl 2.2N HCl and [^3H]cAMP was isolated by employing alumina column chromatography. Radioactivity contained in 4 ml of the final column eluate was counted by a Packard-Tri-carb 2100/TR liquid scintillation counter after adding 10 ml of liquid scintillation cocktail.
To determine if modulation of adenylyl cyclase activity by SERMs was mediated through CB2 receptors coupling to Gi/o proteins, additional cAMP assays were conducted following overnight treatment with pertussis toxin as described elsewhere. Briefly, CHO-hCB2 cells were seeded into 24-well plates as described above in normal culture media containing 100 ng/ml of pertussis toxin and incubated overnight at 37°C. Pertussis toxin-treated media was removed and measurement of intracellular [^3H]cAMP levels following indicated SERM treatments was conducted as described above.
as §2

[7] = chronic administration, cited from earlier work

SMILES: CC/C(=C(\c1ccccc1)c1ccc(OCCN(C)C)cc1)c1ccccc1 [Z-Tam, tamoxifen]
- Type of antagonism of CP-55,940 (hCB1 receptors [1]): insurmountable
- IMAX of CP-55,940, intracellular [3H]cAMP (hCB1 receptors [1]): 23.0%
- IMAX of CP-55,940, intracellular [3H]cAMP (hCB1 receptors [1]; listed as +Z-Tam): 23.0 ± 0.5^b %
- Decrease in [35S]GTPγS binding [2]: 11.3%
- IMAX, decrease in basal G-protein activity ([35S]GTPγS binding) (hCB2 receptors [3]): 65.1± 3.0%
- inhibition at 10 µM (hCB1 receptors [4]): 50.8 ± 2.7%
- Type of antagonism of CP-55,940 (hCB2 receptors [5]): surmountable antagonism
- IMAX of CP-55,940, intracellular [3H]cAMP (hCB2 receptors [5]; CP-55,940 alone or after pre-incubation with AM-630 1 μM, Z-Tam 10 μM, Z-4OHT 10 μM, Z-End 30 μM): 32.3 ± 0.7^a %
- Functional activity at ERs (ERs): ER antagonist
- EMAX, intracellular [3H]cAMP (hCB2 receptors [6]): 374 ± 24^a^,^b^, ^††† %

SMILES: CC/C(=C(\c1ccc(O)cc1)c1ccc(OCCN(C)C)cc1)c1ccccc1 [4OHT, 4-hydroxytamoxifen]
- Concentration reached in serum ([7]; ref [40]): high nanomolar concentrations
- Levels accumulated in brain and breast tissue ([7]; ref [65], [66]): micromolar range
